Measurements as given in patent US6864286B2, “Inhibitors of the EGF-receptor tyrosine kinase and methods for their use” (Parker Hughes Institute, priority 1998, dated 2005).

Columns and labels:
[1] = tested on: MDA-MB-231 breast cancer cells; assay: Flow cytometric apoptosis assay (MC540 binding / PI permeability); type: cell-based, human; conditions: for Apoptotic fraction [AF] with MC540+/PI+ advanced stage apoptosis: 24 hours
Source text: Loose packing of membrane phospholipid head groups and cell shrinkage precede DNA fragmentation in apoptotic cells, thereby providing MC540 binding as an early marker for apoptosis (Uckun F. M., et al. Clin. Cancer Res. 1998, 4, 901-912; and Kuo, E. A. J. Med. Chem. 1996, 39, 4608-4621). Plasma membrane permeability to propidium iodide (PI, Sigma) develops at a later stage of apoptosis (Uckun F. M., et al. Clin. Cancer Res. 1998, 4, 901-912; and Kuo, E. A. J. Med. Chem. 1996, 39, 4608-4621). MC540 binding and PI permeability were simultaneously measured in breast cancer cells 24 hours after exposure to leflunomide analogs, as described (Uckun F. M., et al. Clin. Cancer Res. 1998, 4, 901-912. Stock solutions of MC540 and PI, each at 1 mg/mL, were passed through a 0.22 μm filter and stored at 4° C. in the dark. Shortly before analysis, suspensions containing 1×10^6 cells were suspended in 5 μg/mL MC540 and 10 μg/mL PI and kept in the dark at 4° C. Whole cells were analyzed with a FACS Calibur or FACS Vantage flow cytometer (Becton Dickinson, San Jose, Calif.). All analyses were done using 488 nm excitation from an argon laser. MC540 and PI emissions were split with a 600 nm short pass dichroic mirror and a 575 nm band pass filter was placed in front of one photomultiplier tube to measure MC540 emission and a 635 nm band pass filter was used for PI emission.
Loose packing of membrane phospholipid head groups and cell shrinkage precede DNA fragmentation in apoptotic cells, thereby providing MC540 binding as an early marker for apoptosis (Uckun, F. M. et al., Science, 1995, 267, 886-891). MC540 binding and propidium iodide (PI) permeability of MDA-MB-231 breast cancer cells were simultaneously measured before and after a 24 hour treatment with 100 μM or 500 μM LFM-A12. Whole cells were analyzed with a FACStar Plus flow cytometer (Becton Dickinson, San Jose, Calif.).

MDA-MB-231 cells = assay: In vitro clonogenic assay, MDA-MB-231; type: cell-based, human; conditions: 24 hour treatment; for inhibition at 0.1 µM / inhibition at 10 µM / inhibition at 100 µM: Homo sapiens
Procedure: In order to determine the cytotoxic activity of LFM and its analogs against breast cancer cells, cells in alpha-MEM supplemented with 10% (v/v) fetal calf serum were treated with various concentrations of the compounds for 24 hours at 37° C., washed twice in alpha-MEM, and then used in either MTT assays or in vitro invasion assays, as described hereinafter.
After treatment with LFM analogs, cells were resuspended in clonogenic medium consisting of alpha-MEM supplemented with 0.9% methylcellulose, 30% fetal bovine serum, and 50 μM 2-mercaptoethanol. Cells were plated in duplicate Petri dishes at 100,000 cells/mL/dish and cultured in a humidified 5% CO2 incubator for 7 days. Cancer cell colonies were enumerated on a grid using an inverted phase microscope of high optical resolution (Uckun F. M., et al. Clin. Cancer Res. 1998, 4, 901-912; and Kuo). Results were expressed as % inhibition of clonogenic cells at a particular concentration of the test agent using the formula: % Inhibition=(1-Mean # of colonies [Test]/Mean # of colonies [Control])×100. Furthermore, the dose survival curves were constructed using the percent control survival (=Mean # of colonies[Test]/Mean # of colonies [Control]×100) results for each drug concentration as the data points and the IC50 values were calculated. The IC50 values were determined using an Prism Version II Inplot program (Graphpad Software, Inc., San Diego, Calif.).

JAK3 = target: T1, JAK3 (Homo sapiens, UniProt P52333); assay: Cell-free JAK3 immune complex kinase assay; type: biochemical; conditions: for effect on enzymatic activity of JAK3: at concentrations as high as 350 μM
T1 construct: made in house; host or cells: Sf21 insect cells (baculovirus)
T1 sequence (P52333 1-1124): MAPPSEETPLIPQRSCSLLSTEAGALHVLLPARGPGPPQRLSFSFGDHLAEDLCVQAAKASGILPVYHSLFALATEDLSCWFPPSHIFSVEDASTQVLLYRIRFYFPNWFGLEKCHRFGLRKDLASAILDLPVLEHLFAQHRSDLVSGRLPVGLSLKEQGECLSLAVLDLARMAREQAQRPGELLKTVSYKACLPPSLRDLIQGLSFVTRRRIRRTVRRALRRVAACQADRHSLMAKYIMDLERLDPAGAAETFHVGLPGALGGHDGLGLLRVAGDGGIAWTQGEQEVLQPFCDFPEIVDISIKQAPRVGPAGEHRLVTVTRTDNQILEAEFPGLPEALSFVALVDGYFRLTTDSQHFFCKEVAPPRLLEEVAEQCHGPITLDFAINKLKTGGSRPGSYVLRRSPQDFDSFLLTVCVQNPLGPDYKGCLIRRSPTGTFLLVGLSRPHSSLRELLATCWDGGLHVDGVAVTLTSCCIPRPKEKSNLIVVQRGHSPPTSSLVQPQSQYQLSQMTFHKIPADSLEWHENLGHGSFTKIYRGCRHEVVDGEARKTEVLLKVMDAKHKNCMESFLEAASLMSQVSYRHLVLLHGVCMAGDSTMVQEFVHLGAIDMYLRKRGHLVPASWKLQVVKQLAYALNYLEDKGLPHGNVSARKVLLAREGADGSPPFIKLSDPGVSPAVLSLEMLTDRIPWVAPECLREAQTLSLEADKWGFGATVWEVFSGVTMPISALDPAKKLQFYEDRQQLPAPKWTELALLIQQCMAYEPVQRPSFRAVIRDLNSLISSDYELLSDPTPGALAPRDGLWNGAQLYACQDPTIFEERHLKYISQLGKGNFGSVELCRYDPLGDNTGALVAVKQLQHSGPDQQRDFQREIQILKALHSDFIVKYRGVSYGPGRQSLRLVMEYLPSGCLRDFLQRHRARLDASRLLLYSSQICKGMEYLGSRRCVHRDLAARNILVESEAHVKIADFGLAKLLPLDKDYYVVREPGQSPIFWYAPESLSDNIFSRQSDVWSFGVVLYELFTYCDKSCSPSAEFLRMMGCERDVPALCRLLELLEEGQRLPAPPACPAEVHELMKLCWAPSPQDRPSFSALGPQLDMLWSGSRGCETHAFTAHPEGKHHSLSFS
Procedure: Immunoprecipitations, immune-complex protein kinase assays, and immunoblotting using the ECL chemiluminescence detection system (Amersham Life Sciences) were conducted as described previously (Vassilev, A., et al. J. Biol. Chem. 1998, in press; Goodman, P. A., et al. J. Biol. Chem. 1998, 273, 17742; Mahajan, S., et al. Mol. Cell. Biol. 1995, 15, 5304; Uckun, F. M., et al. Science 1996, 22, 1096).

Row | effect on enzymatic activity of JAK3 (JAK3) | IC50 (JAK3; JAK3, cell-free, read-out: Inhibition IC50) | SMILES | induction of apoptosis ([1]; MDA-MB-231, 24 hours) | inhibition at 0.1 µM (MDA-MB-231 cells; MDA-MB-231, 0.1 μM) | inhibition at 10 µM (MDA-MB-231 cells; MDA-MB-231, 10 μM) | inhibition at 100 µM (MDA-MB-231 cells; MDA-MB-231, 100 μM) | Tumor Cell Colonies/10^5 Cells (MDA-MB-231 cells; MDA-MB-231, 0.1 μM) | Tumor Cell Colonies/10^5 Cells (MDA-MB-231 cells; MDA-MB-231, 10 μM) | Tumor Cell Colonies/10^5 Cells (MDA-MB-231 cells; MDA-MB-231, 100 μM) | Apoptotic fraction [AF] with MC540+/PI+ advanced stage apoptosis ([1]; MDA-MB-231, 100 μM) | Apoptotic fraction [AF] with MC540+/PI+ advanced stage apoptosis ([1]; MDA-MB-231, 500 μM) | % Inhibition of clonogenic cells (MDA-MB-231 cells; MDA-MB-231, 100 μM, 100 µM)
1 | did not affect the enzymatic activity | – | CC(O)=C(C#N)C(=O)Nc1ccc(C(F)(F)F)cc1 [LFM, α-Cyano-β-hydroxy-β-methyl-N-[4-(trifluoromethyl)phenyl]-propenamide, reference compound] | albeit to a lesser extent, also induced apoptosis | 16.2% | 44.2% | 74.2% | 964 | 642 | 297 | – | – | –
2 | did not affect the enzymatic activity | > 350 µM | C/C(O)=C(\C#N)C(=O)Nc1ccc(OC(F)(F)F)cc1 [LFM-A12, α-Cyano-β-hydroxy-β-methyl-N-[4-(trifluoromethoxy)phenyl]-propenamide] | – | 42% | 55.2% | > 99% | 667 | 515 | 0 | 54% | 85% | >99%
